Columns and labels:
Format in all cases: in vivo
[1] = tested on: Amaranthus retroflexus; assay: Test Example 5: herbicidal effect by foliage application, plastic box (symbol N); details: 320 g/ha, 3 weeks after application
Summary of the method: (§1)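 Emulsion formulation, diluted with water to the intended rate, was applied uniformly to leaves by small sprayer. Recipients were 14-day greenhouse-grown seedlings (25° C. to 30° C.). Assessment followed at 3 weeks.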

[2] = tested on: Digitaria ciliaris; assay: Test Example 5: herbicidal effect by foliage application, plastic box (symbol F); details: 320 g/ha, 3 weeks after application
Summary of the method: as §1

[3] = tested on: Abutilon theophrasti; assay: Test Example 4: herbicidal effect by soil treatment (symbol M); details: application herbicide amount 320 g/ha
Summary of the method: (§2)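 Seeds were sown in sterilized diluvial soil, covered with about 1.5 cm of soil, and the soil surface was sprayed with a water-diluted emulsion of the compound at a predetermined rate. Plants grew in a greenhouse at 25° C. to 30° C.; effects were scored visually 3 weeks after application.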

[4] = tested on: Echinochloa crus-galli var. crus-galli; assay: Test Example 5: herbicidal effect by foliage application, plastic box (symbol H); details: 320 g/ha, 3 weeks after application
Summary of the method: as §1

[5] = tested on: Scirpus juncoides; assay: Test Example 1: herbicidal activity, application before weed generation in submerged conditions (symbol B); details: application herbicide amount 320 g/ha
Summary of the method: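 Greenhouse growth at 25–30 °C lasted 3 weeks after treatment, when each weed was graded 0–5 by herbicidal ratio. Treatment was a diluted emulsion applied to the water surface of 4 cm-submerged alluvial soil on the sowing day.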

[6] = tested on: Galium spurium; assay: Test Example 4: herbicidal effect by soil treatment (symbol Q); details: application herbicide amount 320 g/ha
Summary of the method: as §2

[7] = tested on: Avena fatua; assay: Test Example 4: herbicidal effect by soil treatment (symbol I); details: application herbicide amount 320 g/ha
Summary of the method: as §2

[8] = tested on: corn; assay: Test Example 4: effect on crop by soil treatment (symbol c); details: application herbicide amount 320 g/ha
Summary of the method: (§3)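 Crop seed is sown in spots together with several weed species in a box of sterilized diluvial soil. It is covered by about 1.5 cm of soil and kept in a greenhouse held between 25° C. and 30° C.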

[9] = tested on: Amaranthus retroflexus; assay: Test Example 4: herbicidal effect by soil treatment (symbol N); details: application herbicide amount 320 g/ha
Summary of the method: as §2

[10] = tested on: wheat; assay: Test Example 5: effect on crop by foliage application, plastic box (symbol e); details: 320 g/ha, 3 weeks after application
Summary of the method: (§4)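 Seeds were sown in spots in sterilized diluvial soil held in a plastic box 21 cm × 13 cm × 7 cm deep, covered with about 1.5 cm of soil, and grown in a greenhouse at 25° C. to 30° C.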

[11] = tested on: rice plant; assay: Test Example 5: effect on crop by foliage application, plastic box (symbol b); details: 320 g/ha, 3 weeks after application
Summary of the method: as §4

[12] = tested on: Galium spurium; assay: Test Example 5: herbicidal effect by foliage application, plastic box (symbol Q); details: 320 g/ha, 3 weeks after application
Summary of the method: as §1

[13] = tested on: Stellaria media; assay: Test Example 4: herbicidal effect by soil treatment (symbol P); details: application herbicide amount 320 g/ha
Summary of the method: as §2

[14] = tested on: Setaria viridis; assay: Test Example 5: herbicidal effect by foliage application, plastic box (symbol G); details: 320 g/ha, 3 weeks after application
Summary of the method: as §1

[15] = tested on: rice; assay: Test Example 4: effect on crop by soil treatment (symbol b); details: application herbicide amount 320 g/ha
Summary of the method: as §3

[16] = tested on: soybean; assay: Test Example 5: effect on crop by foliage application, plastic box (symbol d); details: 320 g/ha, 3 weeks after application
Summary of the method: as §4

[17] = tested on: wheat; assay: Test Example 4: effect on crop by soil treatment (symbol e); details: application herbicide amount 320 g/ha
Summary of the method: as §3

[18] = tested on: soybean; assay: Test Example 4: effect on crop by soil treatment (symbol d); details: application herbicide amount 320 g/ha
Summary of the method: as §3

[19] = tested on: Setaria viridis; assay: Test Example 4: herbicidal effect by soil treatment (symbol G); details: application herbicide amount 320 g/ha
Summary of the method: as §2

[20] = tested on: Alopecurus myosuroides; assay: Test Example 4: herbicidal effect by soil treatment (symbol J); details: application herbicide amount 320 g/ha
Summary of the method: as §2

[21] = tested on: Lolium multiflorum Lam.; assay: Test Example 4: herbicidal effect by soil treatment (symbol K); details: application herbicide amount 320 g/ha
Summary of the method: as §2

[22] = tested on: Alopecurus myosuroides; assay: Test Example 5: herbicidal effect by foliage application, plastic box (symbol J); details: 320 g/ha, 3 weeks after application
Summary of the method: as §1

| SMILES | N: Amaranthus retroflexus, herbicidal effect (criteria of Test Example 1) [1] | F: Digitaria ciliaris, herbicidal effect (criteria of Test Example 1) [2] | Herbicidal effect grade, M: Abutilon theophrasti [3] | H: Echinochloa crus-galli var. crus-galli, herbicidal effect (criteria of Test Example 1) [4] | Herbicidal effect grade, B: Scirpus juncoides [5] | Herbicidal effect grade, Q: Galium spurium [6] | Herbicidal effect grade, I: Avena fatua [7] | Effect on crop grade, c: corn [8] | Herbicidal effect grade, N: Amaranthus retroflexus [9] | e: wheat, effect on crop (criteria of Test Example 1) [10] | b: directly sowed rice plant, effect on crop (criteria of Test Example 1) [11] | Q: Galium spurium, herbicidal effect (criteria of Test Example 1) [12] | Herbicidal effect grade, P: Stellaria media [13] | G: Setaria viridis, herbicidal effect (criteria of Test Example 1) [14] | Effect on crop grade, b: directly sowed rice plant [15] | d: soybean, effect on crop (criteria of Test Example 1) [16] | Effect on crop grade, e: wheat [17] | Effect on crop grade, d: soybean [18] | Herbicidal effect grade, G: Setaria viridis [19] | Herbicidal effect grade, J: Alopecurus myosuroides [20] | also measured |
| --- | --- | --- | --- | --- | --- | --- | --- | --- | --- | --- | --- | --- | --- | --- | --- | --- | --- | --- | --- | --- | --- |
| CC(=O)CC1CC(O)=C(c2c(C)cc(-c3ccc(C(F)(F)F)cc3)cc2C)C1=O (stereo not drawn) [7-005] | 0 (Herbicidal ratio of 5% or lower (almost no effect)) | 5 (Herbicidal ratio of 90% or more (almost completely withered)) | 0 (Herbicidal ratio of 5% or lower (almost no effect)) | 5 (Herbicidal ratio of 90% or more (almost completely withered)) | 0 (Herbicidal ratio of 5% or lower (almost no effect)) | 0 (Herbicidal ratio of 5% or lower (almost no effect)) | 0 (Herbicidal ratio of 5% or lower (almost no effect)) | 0 (Herbicidal ratio of 5% or lower (almost no effect)) | 0 (Herbicidal ratio of 5% or lower (almost no effect)) | 0 (Herbicidal ratio of 5% or lower (almost no effect)) | 4 (Herbicidal ratio of 70% or higher and lower than 90%) | 0 (Herbicidal ratio of 5% or lower (almost no effect)) | 0 (Herbicidal ratio of 5% or lower (almost no effect)) | 4 (Herbicidal ratio of 70% or higher and lower than 90%) | 1 (Herbicidal ratio of 5% or higher and lower than 20%) | 0 (Herbicidal ratio of 5% or lower (almost no effect)) | 0 (Herbicidal ratio of 5% or lower (almost no effect)) | 0 (Herbicidal ratio of 5% or lower (almost no effect)) | 0 (Herbicidal ratio of 5% or lower (almost no effect)) | 0 (Herbicidal ratio of 5% or lower (almost no effect)) | Herbicidal effect grade, K: Lolium multiflorum Lam. [21]: 2 (Herbicidal ratio of 20% or higher and lower than 40%); J: Alopecurus myosuroides, herbicidal effect (criteria of Test Example 1) [22]: 2 (Herbicidal ratio of 20% or higher and lower than 40%) |
| CC#Cc1cc(C)c(C2=C(O)CC(CC(C)=O)C2=O)c(C)c1 (stereo not drawn) [7-010] | 1 (Herbicidal ratio of 5% or higher and lower than 20%) | 5 (Herbicidal ratio of 90% or more (almost completely withered)) | 4 (Herbicidal ratio of 70% or higher and lower than 90%) | 5 (Herbicidal ratio of 90% or more (almost completely withered)) | 5 (Herbicidal ratio of 90% or more (almost completely withered)) | 0 (Herbicidal ratio of 5% or lower (almost no effect)) | 2 (Herbicidal ratio of 20% or higher and lower than 40%) | 5 (Herbicidal ratio of 90% or more (almost completely withered)) | 0 (Herbicidal ratio of 5% or lower (almost no effect)) | 5 (Herbicidal ratio of 90% or more (almost completely withered)) | 5 (Herbicidal ratio of 90% or more (almost completely withered)) | 0 (Herbicidal ratio of 5% or lower (almost no effect)) | 0 (Herbicidal ratio of 5% or lower (almost no effect)) | 5 (Herbicidal ratio of 90% or more (almost completely withered)) | 5 (Herbicidal ratio of 90% or more (almost completely withered)) | 3 (Herbicidal ratio of 40% or higher and lower than 70%) | 4 (Herbicidal ratio of 70% or higher and lower than 90%) | 2 (Herbicidal ratio of 20% or higher and lower than 40%) | 5 (Herbicidal ratio of 90% or more (almost completely withered)) | 5 (Herbicidal ratio of 90% or more (almost completely withered)) | Herbicidal effect grade, K: Lolium multiflorum Lam. [21]: 5 (Herbicidal ratio of 90% or more (almost completely withered)); J: Alopecurus myosuroides, herbicidal effect (criteria of Test Example 1) [22]: 5 (Herbicidal ratio of 90% or more (almost completely withered)) |
| CC(=O)CC1CC(O)=C(c2c(C)cc(C)cc2Br)C1=O (stereo not drawn) [7-011] | 5 (Herbicidal ratio of 90% or more (almost completely withered)) | 4 (Herbicidal ratio of 70% or higher and lower than 90%) | 0 (Herbicidal ratio of 5% or lower (almost no effect)) | 5 (Herbicidal ratio of 90% or more (almost completely withered)) | 1 (Herbicidal ratio of 5% or higher and lower than 20%) | 0 (Herbicidal ratio of 5% or lower (almost no effect)) | 0 (Herbicidal ratio of 5% or lower (almost no effect)) | 3 (Herbicidal ratio of 40% or higher and lower than 70%) | 0 (Herbicidal ratio of 5% or lower (almost no effect)) | 0 (Herbicidal ratio of 5% or lower (almost no effect)) | 5 (Herbicidal ratio of 90% or more (almost completely withered)) | 0 (Herbicidal ratio of 5% or lower (almost no effect)) | 0 (Herbicidal ratio of 5% or lower (almost no effect)) | 3 (Herbicidal ratio of 40% or higher and lower than 70%) | 5 (Herbicidal ratio of 90% or more (almost completely withered)) | 0 (Herbicidal ratio of 5% or lower (almost no effect)) | 0 (Herbicidal ratio of 5% or lower (almost no effect)) | 0 (Herbicidal ratio of 5% or lower (almost no effect)) | 0 (Herbicidal ratio of 5% or lower (almost no effect)) | 3 (Herbicidal ratio of 40% or higher and lower than 70%) | Herbicidal effect grade, K: Lolium multiflorum Lam. [21]: 4 (Herbicidal ratio of 70% or higher and lower than 90%); J: Alopecurus myosuroides, herbicidal effect (criteria of Test Example 1) [22]: 4 (Herbicidal ratio of 70% or higher and lower than 90%) |

Reference: patent US11000033B2, “Ketone or oxime compound, and herbicide” (NISSAN CHEMICAL CORPORATION, priority 2014, dated 2021)
